Reference: publication PMC4501119, “Cholestenoic acid, an endogenous cholesterol metabolite, is a potent γ-secretase modulator” (Molecular Neurodegeneration, 2015)
Several values for one entry are separate records, joined by “and”; a condition that tells them apart may be missing. Identical values can stand only once.

Columns and labels:
[1] = test system: primary mouse motor neuron; set-up: method as in PMID 25271621; details: cited from earlier work
[2] = test system: endogenous mouse Aβ (mAβ) in primary neuron-glia cultures; experiment: Primary mixed neuron-glia culture, endogenous mouse Aβ ELISA; format: cell-based
Protocol: Primary mixed neuron-glia cultures were prepared from postnatal day 0 (P0) C3HBL/6 mouse brains (Harlan Labs). Cerebral cortices were dissected from P0 mouse brains and were dissociated in 2 mg/ml papain (Worthington) and 50 μg/mL DNAse I (Sigma) at 37 °C for 20 min. They were then washed three times in sterile Hank’s balanced salt solution (HBSS) to inactivate the papain and switched to 5 % fetal bovine serume (HyClone) in Neurobasal-A growth media (Gibco), which includes 0.5 mM L-glutamine (Gibco), 0.5 mM GlutaMax (Life Technologies), 0.01 % antibiotic-antimycotic (Gibco), and 0.02 % SM1 supplement (Stemcell). The tissue mixture was then triturated three times using a 5 mL pipette followed by a Pasteur pipette, and strained through a 70 μm cell strainer. The cell mixture was then centrifuged at 200xg for 3 min, and re-suspended in fresh Neurobasal-A media. They were then plated onto poly-D-lysine coated 96well plates at 100,000 cells/well. Cells were maintained in the Neurobasal-A growth media mentioned above without fetal bovine serum (FBS) at 37 °C in a humidified 5 % CO2 chamber.
(§1) Monoclonal antibodies to Aβ were generated by the Mayo Clinic Immunology Core facilities (Jacksonville, FL, USA). Ab5 recognizes an epitope in the amino terminus of Aβ (Aβ1-16), recognizes both monomeric and aggregated Aβ, and is human specific. […] Ab 2.1.3 was raised against Aβ35-42 and is specific for Aβx-42. […] For cell-based screens, Aβ was captured from conditioned medium with either Ab5, Ab38, Ab13.1.1, or Ab2.1.3 (coated at 10-50 μg/ml in EC buffer: 5 mM NaH2PO4-H2O, 20 mM Na2HPO4, 400 mM NaCl, 2.5 mM EDTA-full name, 151.5 μM BSA, 813 μM CHAPS, and 7.7 mM NaN3) on Immulon 4HBX Flat-Bottom Microfilter 96-well plates (Thermo Scientific, Waltham, MA, USA). Total Aβ level was determined by capture with Ab5 and detected with horseradish peroxidase (HRP)-conjugated 4G8 (a monoclonal antibody against Aβ17-24; Covance, Waltham, MA, USA) with the other Aβ peptides detected with HRP-conjugated Ab5. For the cell-free assay and measuring mouse endogenous Aβ, HRP-conjugated 4G8 was used as the secondary detection antibody. Aβ standards (Bachem, King of Prussia, PA, USA) were prepared by dissolving in hexafluoroisopropanol (HFIP) at 1 mg/ml with sonication, dried under nitrogen, resuspended at 2 mg/ml HFIP, sonicated again and dried under nitrogen. The resulting Aβ was resuspended in 0.01 % ammonium hydroxide, portioned into aliquots in EC buffer, and frozen at −80 °C. Following these steps, the Aβ is monomeric, as determined by size-exclusion chromatography.

γ-secretase = biological target: T1, γ-secretase (Homo sapiens, UniProt P49768); experiment: In vitro γ-secretase (broken cell) assay, membranes of H4 neuroglioma cells overexpressing APP695wt, Aβ ELISA; format: biochemical; details: vs DMSO control, 2 h incubation
T1 construct: The membrane derived from the H4 neuroglioma cells overexpressing APP695wt were prepared by carbonate extraction; endogenous in cells; host or cells: H4 neuroglioma cells overexpressing APP695wt (membranes, carbonate extraction)
Protocol: Broken cell assays were performed with slight modifications from the previous studies. The membrane derived from the H4 neuroglioma cells overexpressing APP695wt were prepared by carbonate extraction and incubated at 37 °C for 2 h with CA at various concentrations. Aβ levels were quantified by sandwich ELISAs. For Aβ and AICD spectra, the recombinant C100Flag proteins were overexpressed and purified from Escherichia coli BL21 using a HiTrap Q-column (GE Life Science, Little Chalfont, U.K.). The membrane containing γ-secretase was isolated from the CHO S-1 cell line using sodium carbonate (100 mM, pH 11.0). For the in vitro γ-secretase assay, C100Flag recombinant protein at 25 μM was incubated with the membrane (100 μg/mL) in the presence of CA (20 μM) and DMSO in 150 mM sodium citrate buffer (pH 6.8) containing complete protease inhibitor (Roche, Indianapolis, IN) for 2 h at 37 °C.
as §1

CC(CCC[C@@H](C)C(=O)O)[C@H]1CCC2C3CC=C4C[C@@H](O)CC[C@]4(C)C3CC[C@@]21C (stereo partly drawn) [Cmpd 2a, 25(R)-cholestenoic acid]
toxicity to primary mouse motor neuron in cultures [1]: toxic
decrease of mAβ42 production ([2]; 3 μM): ~ 60%
Aβ42:Aβ38 ratio ([2]; 3 μM and 10 μM): significant decrease
Aβ38 production ([2]; 10 μM): increased
decrease of mAβ42 production ([2]; 10 μM): ~ 75%
change in total Aβ levels (γ-secretase): without any significant changes
decrease of Aβ42 production (γ-secretase; CA at 150 μM, listed as CA): 50% and 51%
